Measurements from patent US11696913B2, “Prolonged ectoparasite-controlling agent for animal” (MITSUI CHEMICALS AGRO, INC., priority 2017, dated 2023).

Assays:
[1] = test system: Ctenocephalides felis; assay: In vitro contact test with fleas; settings: read-out: insecticidal activity; for pest or weed control at 0.2 µg/cm2, 0.2 µg/cm2: dose 0.2 μg/cm^2, dead or moribund fleas after 48 h; for pest or weed control at 1 µg/cm2, 1 µg/cm2: dose 1 μg/cm^2, dead or moribund fleas after 48 h; for pest or weed control at 0.04 µg/cm2, 0.04 µg/cm2: dose 0.04 μg/cm^2, dead or moribund fleas after 48 h
Procedure, shortened: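 Activity is the percentage of fleas dead or moribund at 48 h, judged by immobility or uncoordinated movement after tapping. Tubes were coated by evaporating acetone solutions (900 ppm gives 5 μg/cm^2), then held 5-10 adult fleas of both sexes at room temperature and ambient humidity.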

[2] = test system: Amblyomma americanum; assay: In vitro contact test with hard ticks (Amblyomma americanum nymphs); settings: read-out: acaricidal activity; for pest or weed control at 1 µg/cm2, 1 µg/cm2: dose 1 μg/cm^2, 48 h; for pest or weed control at 0.2 µg/cm2, 0.2 µg/cm2: dose 0.2 μg/cm^2, 48 h
Procedure, shortened: (§1)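 Acaricidal activity = % ticks dead or moribund after 48 h contact with acetone-deposited compound on vial walls (e.g., 900 ppm solution → 5 μg/cm^2). Ambient conditions for R. sanguineus, 21° C./85% rel. hum. for other species; heat challenge at 45-50° C. separated climbers from moribund ticks.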

[3] = test system: Dermacentor variabilis; assay: In vitro contact test with adult hard ticks (Dermacentor variabilis); settings: read-out: acaricidal activity; for pest or weed control at 0.2 µg/cm2, 0.2 µg/cm2: dose 0.2 μg/cm^2, 48 h; for pest or weed control at 1 µg/cm2, 1 µg/cm2: dose 1 μg/cm^2, 48 h
Procedure, shortened: as §1

[4] = test system: Rhipicephalus sanguineus; assay: In vitro contact test with adult hard ticks (Rhipicephalus sanguineus); settings: read-out: acaricidal activity; for pest or weed control at 1 µg/cm2, 1 µg/cm2: dose 1 μg/cm^2, 48 h; for pest or weed control at 0.2 µg/cm2, 0.2 µg/cm2: dose 0.2 μg/cm^2, 48 h
Procedure, shortened: as §1

[5] = test system: Rhipicephalus (Boophilus) microplus; assay: In vitro injection test with Rhipicephalus (Boophilus) microplus (BOOPMI Inj); settings: 168 h, laid fertile eggs after 7 days, read-out: acaricidal activity; for pest or weed control at 32 ng: dose 0.032 μg/animal injected; for pest or weed control at 0.00016 mg: dose 0.16 μg/animal injected; for pest or weed control at 0.0008 mg: dose 0.8 μg/animal injected
Procedure, shortened: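 Five engorged adult females each get a 1 μl abdominal injection of compound dissolved and diluted in DMSO. Kept 7 days at 28° C./85% rel. hum.; percent activity rates egg laying and egg fertility (0% all fertile, 100% none laid or infertile).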

[6] = test system: Ctenocephalides felis; assay: Ctenocephalides felis in-vitro feeding test with fleas (CTECFE oral); settings: 48 hours, read-out: insecticidal feeding activity; for pest or weed control at 0.16 ppm: dose 0.16 ppm in citrated cattle blood; for pest or weed control at 0.8 ppm: dose 0.8 ppm in citrated cattle blood; for pest or weed control at 4 ppm: dose 4 ppm in citrated cattle blood; for pest or weed control at 0.032 ppm: dose 0.032 ppm in citrated cattle blood
Procedure, shortened: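 Scored as percent fleas killed (0–100%) 48 hours after feeding began. Compound, dissolved in DMSO and diluted into citrated cattle blood, was offered via a parafilm membrane to roughly 20 adult male and female C. felis at about 37° C.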

[7] = test system: Spodoptera litura; assay: Insecticidal testing against common cutworm; type: in vivo; settings: foliar, 144 h, concentration 100 ppm, cabbage leaf dip, second-stage larvae, after 6 days, read-out: pesticidal rate
Description: Insecticidal Testing Against Common Cutworm (Spodoptera litura)

[8] = test system: Plutella xylostella; assay: Insecticidal testing against diamondback moth; type: in vivo; settings: foliar, 144 h, concentration 100 ppm, cabbage leaf dip, third-stage larvae, after 6 days, read-out: pesticidal rate
Description: Insecticidal Testing Against Diamondback Moth (Plutella xylostella)

[9] = test system: Laodelphax striatellus; assay: Insecticidal testing against small brown planthopper; type: in vivo; settings: 144 h, concentration 100 ppm, sprayed rice seedlings, after 6 days, read-out: pesticidal rate
Protocol: Insecticidal Testing Against Small Brown Planthopper (Laodelphax striatellus)
An additional test was carried out with 10 small brown planthoppers by preparing an acetone solution of the testing compound diluted to a predetermined concentration, spraying the solution onto rice seedlings and air drying the rice seedlings. The medicament was all used as received. The rice seedlings were placed in a constant-temperature room at 25° C., and the survival rate was investigated after 6 days. The test was carried out by means of one group of 10 pests.

SMILES | pest or weed control at 0.2 µg/cm2, 0.2 µg/cm2 [1] | pest or weed control at 1 µg/cm2, 1 µg/cm2 [1] | pest or weed control at 1 µg/cm2, 1 µg/cm2 [2] | pest or weed control at 0.2 µg/cm2, 0.2 µg/cm2 [3] | pest or weed control at 1 µg/cm2, 1 µg/cm2 [3] | pest or weed control at 1 µg/cm2, 1 µg/cm2 [4] | pest or weed control at 32 ng [5] | pest or weed control at 0.00016 mg [5] | pest or weed control at 0.0008 mg [5] | pest or weed control at 0.16 ppm [6] | pest or weed control at 0.8 ppm [6] | pest or weed control at 4 ppm [6] | pest or weed control at 100 ppm [7] | pest or weed control at 100 ppm [8] | pest or weed control at 100 ppm [9] | pest or weed control at 0.04 µg/cm2, 0.04 µg/cm2 [1] | pest or weed control at 0.2 µg/cm2, 0.2 µg/cm2 [2] | pest or weed control at 0.032 ppm [6] | pest or weed control at 0.2 µg/cm2, 0.2 µg/cm2 [4] | pest or weed control at 6.4 ng ([5]; dose 0.0064 μg/animal injected)
CN(C(=O)c1ccc(F)c(F)c1)c1cccc(C(=O)Nc2c(I)cc(C(F)(C(F)(F)F)C(F)(F)C(F)(F)F)cc2C(F)(F)F)c1F (stereo not shown) [Compound 77] | 95% | 95% | 90% | 90% | 90% | 90% | 100% | 100% | 100% | 95% | 95% | 95% | ≥ 70% | ≥ 70% | ≥ 70% | – | – | – | – | –
CN(C(=O)c1ccc(C(F)F)nc1)c1cccc(C(=O)Nc2c(I)cc(C(F)(C(F)(F)F)C(F)(F)F)cc2C(F)(F)F)c1F [Compound 87] | 95% | 95% | 90% | 90% | 90% | – | 100% | 100% | 100% | 95% | 95% | 95% | ≥ 70% | ≥ 70% | ≥ 70% | 95% | 90% | 95% | – | –
CN(C(=O)c1ccc(F)cc1)c1cccc(C(=O)Nc2c(Br)cc(C(F)(C(F)(F)F)C(F)(F)C(F)(F)F)cc2OC(F)(F)F)c1F (stereo not shown) [Compound 94] | – | – | 90% | – | 90% | 90% | 100% | 100% | 100% | 95% | 95% | 95% | ≥ 70% | ≥ 70% | ≥ 70% | – | 90% | 95% | 90% | 100%
CN(C(=O)c1ccc(F)c(F)c1)c1cccc(C(=O)Nc2c(Br)cc(C(F)(C(F)(F)F)C(F)(F)F)cc2OC(F)(F)F)c1F [Compound 100] | 95% | 95% | 90% | 90% | 90% | 90% | – | 100% | 100% | 95% | 95% | 95% | ≥ 70% | ≥ 70% | ≥ 70% | 95% | 90% | – | – | –
CN(C(=O)c1ccc(C(F)(F)F)nc1)c1cccc(C(=O)Nc2c(I)cc(C(F)(C(F)(F)F)C(F)(F)F)cc2OC(F)(F)F)c1F [Compound 117, N-(2-fluoro-3-((2-iodo-4-(perfluoropropan-2-yl)-6-(trifluoromethoxy)phenyl)carbamoyl)phenyl)-N-methyl-6-(trifluoromethyl)nicotinamide] | 95% | 95% | 90% | – | – | 90% | 100% | 100% | 100% | 95% | 95% | 95% | ≥ 70% | ≥ 70% | ≥ 70% | – | – | 95% | 90% | –
